Laboratory results published in paper PMC7781899, “Synthesis of some quinazolinones inspired from the natural alkaloid L-norephedrine as EGFR inhibitors and radiosensitizers” (Journal of Enzyme Inhibition and Medicinal Chemistry, 2020).

Legend:
[1] = system: HCT-116; assay: MTT cytotoxicity assay, HCT-116; format: cell-based, human; conditions: for IC50: Homo sapiens; for Selectivity index (SI) HCT-116: relative to MCF-10A normal cells
Procedure: (§1) The 96-well plate was incubated for 24 h before the MTT assay. […] Cells were cultured using DMEM supplemented with 10% foetal bovine serum, 10 µg/mL insulin and 1% penicillin–streptomycin. Reconstituted MTT (10%) was added and incubated for 2 h. Formazan crystals were dissolved by the MTT solubilizing solution after incubation. Absorbance was measured at a wavelength of 570 nm[28].

[2] = system: HepG-2; assay: MTT cytotoxicity assay, HepG-2; format: cell-based, human; conditions: for IC50: Homo sapiens
Procedure: as §1

[3] = system: MCF-7; assay: MTT cytotoxicity assay, MCF-7; format: cell-based, human; conditions: for IC50: Homo sapiens; for Selectivity index (SI) MCF-7: relative to MCF-10A normal cells
Procedure: as §1

[4] = system: MDA-MB-231; assay: MTT cytotoxicity assay, MDA-MB-231; format: cell-based, human; conditions: for IC50: Homo sapiens; for Selectivity index (SI) MDA-MB-231: relative to MCF-10A normal cells
Procedure: as §1

[5] = biological target: T1, EGFR (Homo sapiens, UniProt P00533); assay: EGFR kinase assay; format: biochemical; conditions: EGFR-TK inhibitory assay; means ± SE, three repeats
T1 construct: purchased Invitrogen
Procedure: An ATP solution and a kinase/peptide mixture were developed just before use. […] Then, […] of the prepared solution was added to each well. The plate was incubated for 1 h and determined by an ELISA Reader (PerkinElmer, USA). Curve fitting using Graph Pad Prism 5 was constructed. Each experiment was repeated three times. IC50 was represented as means ± SE.

[6] = system: HepG-2; assay: Radiosensitizing evaluation, HepG-2; format: cell-based; conditions: Homo sapiens, HepG2, light or radiation study, 48 h; single dose of 8 Gy gamma radiation; measured two days after irradiation
Procedure: (§2) Irradiation was performed at the National Centre for Radiation Research and Technology (NCRRT), Egyptian Atomic Energy Authority, using Gamma cell-40 (^137Cs) source. The promising compounds 5 and 6 were selected to be re-evaluated for in vitro cytotoxic activity after the cells containing the compounds were gamma-irradiated at a dose level of 8 Gy with a dose rate of 0.758 rad/s for 17.59 min. Cytotoxicity was measured two days after irradiation. The IC50 of the tested compounds is calculated using GraphPad Prism 5.

[7] = system: MDA-MB-231; assay: Radiosensitizing evaluation, MDA-MB-231; format: cell-based; conditions: Homo sapiens, MDA-MB-231, light or radiation study, 48 h; single dose of 8 Gy gamma radiation; measured two days after irradiation
Procedure: as §2

[8] = system: HCT-116; assay: Radiosensitizing evaluation, HCT-116; format: cell-based; conditions: Homo sapiens, HCT-116, light or radiation study, 48 h; single dose of 8 Gy gamma radiation; measured two days after irradiation
Procedure: as §2

[9] = system: MCF-7; assay: Radiosensitizing evaluation, MCF-7; format: cell-based; conditions: Homo sapiens, MCF7, light or radiation study, 48 h; single dose of 8 Gy gamma radiation; measured two days after irradiation
Procedure: as §2

[10] = system: MCF-10A normal breast cell line; assay: MTT cytotoxicity assay, MCF-10A normal cells; format: cell-based; conditions: Homo sapiens
Procedure: as §1

[11] = system: MDA-MB-231, MCF-7, HepG-2 and HCT-116 human cancer cell lines; assay: MTT assay, panel of cancer cell lines; format: cell-based; conditions: range over MDA-MB-231, MCF-7, HepG-2, HCT-116, read-out: IC50 against all the cell lines
Procedure: as §1

[12] = system: MDA-MB-231 cells; assay: Cell cycle analysis by flow cytometry (PI); format: cell-based, human; conditions: 0.76 μM, 24 h
Procedure: The MDA-MB-231 cells (10^5/well) were incubated with compound 5 at its IC50. After 24 h, the cells were washed twice with PBS, then collected and fixed with ice-cold ethanol 70% (v/v). The cells were re-suspended with 0.1 mg/mL RNase, stained with […] PI and examined using flow cytometry (FACScalibur-Becton Dickinson).

[13] = system: MDA-MB-231, MCF-7, HCT-116, HepG-2; assay: Radiosensitizing evaluation, all tested cell lines; format: cell-based; conditions: Homo sapiens, light or radiation study; single dose of 8 Gy gamma radiation; read-out: IC50 on all the tested cell lines after irradiation
Procedure: as §2

[14] = system: MDA-MB-231 cells; assay: Apoptotic assay, Annexin V-FITC/PI; format: cell-based, human; conditions: 0.76 μM, 24 h
Procedure: Cells were prepared as previously mentioned. Treatment of cells (10^5) with Annexin V-FITC and propidium iodide (PI) was by apoptosis detection kit [BD Biosciences, San Jose, CA]. The binding of Annexin V-FITC and PI was examined using flow cytometry FACScalibur (BD Biosciences, San Jose, CA). CellQuest software was used for performing quadrant analysis of co-ordinate dot plots.

[15] = HCT-116, MTT assay, mean of three experiments ± SE, read-out: IC50 HCT-116
[16] = HepG2, MTT assay, mean of three experiments ± SE, read-out: IC50 HepG-2
[17] = MCF7, MTT assay, mean of three experiments ± SE, read-out: IC50 MCF-7
[18] = MDA-MB-231, MTT assay, mean of three experiments ± SE, read-out: IC50 MDA-MB-231

T1 sequence (P00533 25-1210): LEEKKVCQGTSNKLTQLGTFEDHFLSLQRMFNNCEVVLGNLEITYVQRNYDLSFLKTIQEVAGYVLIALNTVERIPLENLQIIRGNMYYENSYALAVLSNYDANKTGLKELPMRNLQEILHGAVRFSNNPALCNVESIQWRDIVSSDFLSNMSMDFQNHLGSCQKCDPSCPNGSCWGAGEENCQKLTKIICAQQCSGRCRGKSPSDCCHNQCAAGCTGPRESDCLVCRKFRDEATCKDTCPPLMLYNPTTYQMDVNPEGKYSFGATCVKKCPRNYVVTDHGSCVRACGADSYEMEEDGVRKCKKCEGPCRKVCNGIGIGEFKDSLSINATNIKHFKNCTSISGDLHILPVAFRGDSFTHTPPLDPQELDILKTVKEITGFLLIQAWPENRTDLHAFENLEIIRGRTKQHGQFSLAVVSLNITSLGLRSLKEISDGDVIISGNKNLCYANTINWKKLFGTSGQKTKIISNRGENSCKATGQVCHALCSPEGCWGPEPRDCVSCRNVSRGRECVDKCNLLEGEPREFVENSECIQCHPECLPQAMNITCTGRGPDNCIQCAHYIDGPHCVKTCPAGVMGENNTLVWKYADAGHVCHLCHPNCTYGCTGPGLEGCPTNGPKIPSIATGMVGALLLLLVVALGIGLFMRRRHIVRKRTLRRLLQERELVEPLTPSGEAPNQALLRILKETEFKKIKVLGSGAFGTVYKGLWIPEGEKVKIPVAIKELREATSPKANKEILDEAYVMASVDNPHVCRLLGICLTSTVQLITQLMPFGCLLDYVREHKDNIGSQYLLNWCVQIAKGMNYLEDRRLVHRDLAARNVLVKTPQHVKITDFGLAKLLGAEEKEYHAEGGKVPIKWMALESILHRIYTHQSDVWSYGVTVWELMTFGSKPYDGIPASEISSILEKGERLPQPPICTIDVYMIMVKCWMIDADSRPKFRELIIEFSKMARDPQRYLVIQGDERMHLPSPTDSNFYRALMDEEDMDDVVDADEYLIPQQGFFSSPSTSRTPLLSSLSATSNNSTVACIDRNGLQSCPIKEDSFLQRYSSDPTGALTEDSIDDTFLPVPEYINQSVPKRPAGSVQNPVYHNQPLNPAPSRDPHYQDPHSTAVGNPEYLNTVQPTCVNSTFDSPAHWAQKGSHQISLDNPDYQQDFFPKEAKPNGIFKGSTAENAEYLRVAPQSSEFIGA

SMILES: CSc1nc2ccccc2c(=O)n1N [Compound 7, 3-Amino-2-(methylthio)quinazolin-4(3H)-one]
- melting point: 178.9 °C
- IC50 [1, 15]: 59.2 ± 0.78 µM
- IC50 [2, 16]: 48.3 ± 0.93 µM
- IC50 [3, 17]: 68.1 ± 1.21 µM
- IC50 [4, 18]: 23.48 ± 0.06 µM
- IC50 [5]: 3.44 ± 0.15 µM

SMILES: CC(Nc1nc2ccccc2c(=O)n1C(C)C(O)c1ccccc1)C(O)c1ccccc1 (stereo not drawn) [Compound 18, 3-(1-hydroxy-1-phenylpropan-2-yl)-2-(1-hydroxy-1-phenylpropan-2-ylamino)quinazolin-4(3H)-one]
- IC50 [1, 15]: 44.9 ± 0.52 µM
- IC50 [2, 16]: 50 ± 0.13 µM
- IC50 [3, 17]: 62.59 ± 0.18 µM
- IC50 [4, 18]: 62.94 ± 0.1 µM
- IC50 [5]: 0.99 ± 0.04 µM

SMILES: CC(C(O)c1ccccc1)n1c(=S)[nH]c2ccccc2c1=O (stereo not drawn) [Compound 4, 3-(1-hydroxy-1-phenylpropan-2-yl)-2-thioxo-2,3-dihydroquinazolin-4(1H)-one]
- IC50 [1, 15]: 23.49 ± 0.05 µM
- IC50 [2, 16]: 22.7 ± 0.61 µM
- IC50 [3, 17]: 25.55 ± 0.02 µM
- IC50 [4, 18]: 35.24 ± 0.24 µM
- IC50 [5]: 1.39 ± 0.14 µM

SMILES: C#Cc1cccc(Nc2ncnc3cc(OCCOC)c(OCCOC)cc23)c1 [Erlotinib, reference compound]
- IC50 ([1]; HCT-116, read-out: IC50 HCT-116): 2.78 ± 0.04 µM
- IC50 ([2]; HepG2, read-out: IC50 HepG-2): 3.04 ± 0.2 µM
- IC50 ([3]; MCF7, read-out: IC50 MCF-7): 4.48 ± 0.02 µM
- IC50 ([4]; MDA-MB-231, read-out: IC50 MDA-MB-231): 3.73 ± 0.01 µM

SMILES: CCOc1nc2ccccc2c(=O)n1N [Compound 13, 3-amino-2-ethoxyquinazolin-4(3H)-one]
- IC50 [1, 15]: > 100 µM
- IC50 [2, 16]: > 100 µM
- IC50 [3, 17]: > 100 µM
- IC50 [4, 18]: 81.43 ± 0.27 µM
- IC50 [5]: 8.35 ± 0.32 µM

SMILES: O=c1c2ccccc2nc2[nH]n3c(=O)c4ccccc4nc3[nH]n12 [Compound 14, [1,2,4,5]tetrazino[3,2-b:6,5-b']diquinazoline-8,16(6H,14H)-dione]
- melting point: 294.1 °C
- IC50 [1, 15]: 29.32 ± 0.16 µM
- IC50 [2, 16]: 41.25 ± 0.23 µM
- IC50 [3, 17]: 30.12 ± 0.19 µM
- IC50 [4, 18]: 26.55 ± 0.04 µM
- IC50 [5]: 1.39 ± 0.27 µM

SMILES: Nn1c(O)nc2ccccc2c1=O [Compound 12, 3-Amino-2-hydroxyquinazolin-4(3H)-one]
- IC50 [1, 15]: 50.75 ± 0.29 µM
- IC50 [2, 16]: 20.5 ± 0.31 µM
- IC50 [3, 17]: 66.3 ± 0.72 µM
- IC50 [4, 18]: 57.78 ± 0.43 µM
- IC50 [5]: 7.39 ± 0.28 µM

SMILES: CC1C(c2ccccc2)Oc2nc3ccccc3c(=O)n21 (stereo not drawn) [Compound 15, 3-Methyl-2-phenyl-2H-oxazolo[2,3-b]quinazolin-5(3H)-one]
- IC50 [1, 15]: 26.51 ± 0.17 µM
- IC50 [2, 16]: 28.5 ± 0.4 µM
- IC50 [3, 17]: 19.67 ± 0.13 µM
- IC50 [4, 18]: 2.41 ± 0.03 µM
- IC50 [5]: 1.09 ± 0.12 µM

SMILES: CC1C(c2ccccc2)Oc2nc3ccccc3c(=O)n2C(C)C(c2ccccc2)Oc2nc3ccccc3c(=O)n21 (stereo not drawn) [Compound 17, 8,18-dimethyl-7,17-diphenyl-7,8,17,18-tetrahydro-[1,6,3,8]dioxadiazecino[2,3-b:7,8-b']diquinazoline-10,20-dione]
- IC50 [1, 15]: 18.4 ± 0.2 µM
- IC50 [2, 16]: 24.3 ± 0.18 µM
- IC50 [3, 17]: 20.1 ± 0.27 µM
- IC50 [4, 18]: 5.45 ± 0.06 µM
- IC50 [5]: 1.02 ± 0.05 µM

SMILES: CC(Nc1nc2ccccc2c(=O)n1N)C(O)c1ccccc1 (stereo not drawn) [Compound 11, 3-amino-2-(1-hydroxy-1-phenylpropan-2-ylamino)quinazolin-4(3H)-one]
- melting point: 147.5 °C
- IC50 [1, 15]: 44.15 ± 0.22 µM
- IC50 [2, 16]: 33.65 ± 0.26 µM
- IC50 [3, 17]: 39.42 ± 0.3 µM
- IC50 [4, 18]: 16.39 ± 0.06 µM
- IC50 [5]: 3.87 ± 0.11 µM

SMILES: CC1Nn2c(nc3ccccc3c2=O)SC1c1ccccc1 (stereo not drawn) [Compound 10, 3-methyl-2-phenyl-3,4-dihydro-[1,3,4]thiadiazino[2,3-b]quinazolin-6(2H)-one]
- IC50 [1, 15]: 46.3 ± 0.63 µM
- IC50 [2, 16]: 35.6 ± 0.36 µM
- IC50 [3, 17]: 37.31 ± 0.29 µM
- IC50 [4, 18]: 21.86 ± 0.04 µM
- IC50 [5]: 3.09 ± 0.2 µM

SMILES: CC1Nn2c(nc3ccccc3c2=O)OC1c1ccccc1 (stereo not drawn) [Compound 9, 3-Methyl-2-phenyl-3,4-dihydro-[1,3,4]oxadiazino[2,3-b]quinazolin-6(2H)-one]
- IC50 [1, 15]: 90.54 ± 0.73 µM
- IC50 [2, 16]: > 100 µM
- IC50 [3, 17]: > 100 µM
- IC50 [4, 18]: 84.15 ± 0.62 µM
- IC50 [5]: 9.78 ± 0.31 µM

SMILES: Nn1c(=S)[nH]c2ccccc2c1=O [Compound 6, 3-Amino-2-thioxo-2,3-dihydroquinazolin-4(1H)-one]
- IC50 [6]: 14.26 ± 0.11 µM
- IC50 [7]: 1.04 ± 0.04 µM
- melting point: 261.2 °C
- IC50 [8]: 6.98 ± 0.25 µM
- IC50 [1, 15]: 10.6 ± 0.19 µM
- Selectivity index (SI) HCT-116 [1]: 4.64
- IC50 [2, 16]: 17.6 ± 0.15 µM
- IC50 [3, 17]: 7.23 ± 0.07 µM
- Selectivity index (SI) MCF-7 [3]: 6.81
- IC50 [9]: 4.26 ± 0.01 µM
- IC50 [4, 18]: 1.6 ± 0.01 µM
- Selectivity index (SI) MDA-MB-231 [4]: 30.75
- IC50 [10]: 49.2 ± 1.52 µM
- IC50 [5]: 2.13 ± 0.21 µM

SMILES: CC1C(c2ccccc2)Sc2nc3ccccc3c(=O)n21 (stereo not drawn) [Compound 8, 3-Methyl-2-phenyl-2H-thiazolo[2,3-b]quinazolin-5(3H)-one]
- IC50 [1, 15]: 49.22 ± 0.49 µM
- IC50 [2, 16]: 47.32 ± 0.47 µM
- IC50 [3, 17]: 70.1 ± 0.87 µM
- IC50 [4, 18]: 38.19 ± 0.38 µM
- IC50 [5]: 3.74 ± 0.17 µM

SMILES: CSc1nc2ccccc2c(=O)n1C(C)C(O)c1ccccc1 (stereo not drawn) [Compound 5, 3-(1-Hydroxy-1-phenylpropan-2-yl)-2-(methylthio)quinazolin-4(3H)-one]
- IC50 [6]: 2.34 ± 0.23 µM
- IC50 [7]: 0.78 ± 0.15 µM
- IC50 [11]: 1.53 to 5.76 µM
- melting point: 121.5 °C
- IC50 [8]: 2.28 ± 0.41 µM
- IC50 [1, 15]: 5.76 ± 0.11 µM
- Selectivity index (SI) HCT-116 [1]: 10.74
- IC50 [2, 16]: 4.14 ± 0.03 µM
- Selectivity index (SI) HepG-2 ([2]; relative to MCF-10A normal cells): 14.93
- % G2-M [12]: 40.39%
- % Pre-G1 [12]: 19.23%
- % S [12]: 34.84%
- %G0-G1 [12]: 24.77%
- rise of percentage of cells at pri-G1 phase over control [12]: 10 folds
- IC50 [3, 17]: 5.43 ± 0.14 µM
- Selectivity index (SI) MCF-7 [3]: 11.39
- IC50 [9]: 2.35 ± 0.18 µM
- IC50 [4, 18]: 1.53 ± 0.01 µM
- Selectivity index (SI) MDA-MB-231 [4]: 40.42
- IC50 [10]: 61.9 ± 2.14 µM
- IC50 [13]: < 5 µM
- IC50 [5]: 0.76 ± 0.1 µM
- Apoptotic assay % Early [14]: 7.36%
- Apoptotic assay % Late [14]: 11.74%
- Apoptotic assay % Necrosis [14]: 3.84%
- Apoptotic assay % Total [14]: 22.94%
- apoptosis over the control [14]: more than 12 folds
